IC50 data for 46 molecules are collected here from US20230135635A1, “INHIBITORS OF ULK1/2 AND METHODS OF USING SAME” (SALK INSTITUTE FOR BIOLOGICAL STUDIES, priority 2020, published 2023).

Each structure is given as a SMILES string. pIC50: −log10 of the molar value.

For the first assay, the target named is T1, recombinant human ULK1 protein (1-649) (Homo sapiens, UniProt O75385).
T1 construct: recombinant human ULK1 protein (1-649, SignalChem #U01-11G); purchased SignalChem U01-11G
T1 sequence (O75385 1-649): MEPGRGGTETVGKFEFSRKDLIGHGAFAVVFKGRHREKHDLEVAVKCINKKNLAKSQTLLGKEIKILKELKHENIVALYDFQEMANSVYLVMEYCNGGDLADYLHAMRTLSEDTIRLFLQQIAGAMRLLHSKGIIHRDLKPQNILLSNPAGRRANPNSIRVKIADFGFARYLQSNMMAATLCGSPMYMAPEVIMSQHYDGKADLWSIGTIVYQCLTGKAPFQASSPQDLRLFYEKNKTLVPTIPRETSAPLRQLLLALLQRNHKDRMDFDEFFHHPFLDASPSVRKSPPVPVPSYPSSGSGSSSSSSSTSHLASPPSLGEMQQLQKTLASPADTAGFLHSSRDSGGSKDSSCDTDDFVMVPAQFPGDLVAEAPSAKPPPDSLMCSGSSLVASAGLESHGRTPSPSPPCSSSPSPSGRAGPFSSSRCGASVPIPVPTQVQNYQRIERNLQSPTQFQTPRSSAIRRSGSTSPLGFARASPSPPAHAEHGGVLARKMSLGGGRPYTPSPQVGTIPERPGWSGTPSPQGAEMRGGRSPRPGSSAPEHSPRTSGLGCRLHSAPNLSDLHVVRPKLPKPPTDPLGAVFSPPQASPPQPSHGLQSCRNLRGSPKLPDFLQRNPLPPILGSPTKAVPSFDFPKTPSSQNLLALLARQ
As to the kind of experiment: ULK1 inhibition assay (ADP Glo). It counts as biochemical. Conditions: Table 1; 25 uM ATP, MBP substrate, one hour. On the procedure: Illustrative compounds of Formula I and related analogs are shown in Table 1 (along with their respective IC50 values for ULK1 inhibition assays). For ADP Glo assay, IC50s are represented nM, with A representing IC50<1 nM, B representing 10 nM>IC50>1 nM, and C representing IC50>10 nM. NT indicates the compound was not tested. ULK1 inhibition assays were performed in a 5 uL reaction volume containing 2 ug/mL recombinant human ULK1 protein (1-649, SignalChem #U01-11G) and 80 ug/mL myelin basic protein (MBP, Sigma-Aldrich #M1891) in the presence of 25 uM ATP (Sigma-Aldrich A7699). ULK 1 inhibition was assessed after one hour. Compounds were tested in triplicate in a 16-dose IC50 mode with 3-fold serial dilution and a starting dose of 30 uM. Staurosporine, a non-selective protein kinase inhibitor, was used in the assay as a positive control.
According to another embodiment, the present disclosure provides methods of producing the above-defined compounds. The compounds may be synthesized using any suitable techniques. Advantageously, these compounds are conveniently synthesized from readily available starting materials. Synthetic chemistry transformations and methodologies useful in synthesizing the compounds described herein are known in the art and include, for example, those described in R. Larock, Comprehensive Organic Transformations (1989); T. W. Greene and P. G. M. Wuts, Protective Groups in Organic Synthesis, 2d. Ed. (1991); L. Fieser and M. Fieser, Fieser and Fieser's Reagents for Organic Synthesis (1994); and L. Paquette, ed., Encyclopedia of Reagents for Organic Synthesis (1995).). In general, synthesis and measurements of ULK1 inhibitory activity of the compounds described herein was performed using method analogous to those previously described in PCT International Application No. PCT/US2015/046777 which is hereby incorporated by reference in its entirety.
As for `COCCN1CCc2cc(Nc3ncc(C(F)(F)F)c(N4CCc5ccccc54)n3)ccc2C1` [Compound A123, N-(4-(Indolin-1-yl)-5-(trifluoromethyl)pyrimidin-2-yl)-2-(2-methoxyethyl)-1,2,3,4-tetra-hydroisoquinolin-6-amine], the pIC50 was less than 8.00.
For `CNC(=O)c1ccccc1Nc1nc(Nc2ccc3c(c2)CCN(C(=O)CCN)C3)ncc1Br` [Compound A136, 2-{2-[2-(3-Amino-propionyl)-1,2,3,4-tetrahydro-isoquinolin-6-ylamino]-5-bromo-pyrimidin-4-ylamino}-N-methyl-benzamide], the negative-log IC50 (pIC50) was less than 8.00.
With `Nc1cnc(Nc2ccc3c(c2)CCNC3)nc1NC1CC1` [Compound A59], the pIC50 was less than 8.00.
The same measure, in the same setting: as for `CS(=O)(=O)N1CCc2cc(Nc3ncc(C(F)(F)F)c(NC4CC4)n3)ccc2C1` [Compound A12], the figure is 8.00 to 9.00; as for `CNC(=O)c1ccccc1Nc1nc(Nc2ccc3c(c2)CCNC3)ncc1Br` [Compound A126, 2-[5-Bromo-2-(1,2,3,4-tetrahydro-isoquinolin-6-ylamino)-pyrimidin-4-ylamino]-N-methyl-benzamide], less than 8.00.
Consider `CC(=O)CN1CCc2cc(Nc3ncc(C(F)(F)F)c(NC4CC4)n3)ccc2C1` [Compound A69], for which the pIC50 was greater than 9.00.
Turning to `NS(=O)(=O)N1CCc2ccc(Nc3ncc(C(F)(F)F)c(NC4CC4)n3)cc2C1` [Compound A76], the pIC50 is 8.00 to 9.00.
Consider `CNC(=O)c1ccccc1Oc1nc(Nc2ccc3c(c2)CCN(CCOC)C3)ncc1Br` [Compound A125, 2-((5-Bromo-2-((2-(2-methoxyethyl)-1,2,3,4-tetrahydroisoquinolin-6-yl)amino)pyrimidin-4-yl)oxy)-N-methylbenzamide], for which the pIC50 was less than 8.00.
On the same count and under the same terms, to `Cn1cnc(CN2CCc3ccc(Nc4ncc(C(F)(F)F)c(NC5CC5)n4)cc3C2)c1` [Compound A111] belongs 8.00 to 9.00.
In the case of `FC(F)(F)c1cnc(Nc2ccc3c(c2)CN(CCN2CCOCC2)CC3)nc1NC1CC1` [Compound A97], the pIC50 was 8.00 to 9.00.
For the molecule `CN1CCc2cc(Nc3nccc(NC4CC4)n3)ccc2C1` [Compound A72], the pIC50 was less than 8.00.
As for `CN1CCc2cc(Nc3ncc(Br)c(NC4CC4)n3)ccc2C1` [Compound A65], the pIC50 was greater than 9.00.
Regarding `FC(F)(F)c1cnc(Nc2ccc3c(c2)CCN(CC2CCCN2)C3)nc1NC1CC1` (stereo not shown) [Compound A40], the pIC50 is 8.00 to 9.00.
With `CNC(=O)c1ccccc1Nc1nc(Nc2ccc3c(c2)CN(CCC(=O)O)CC3)ncc1Br` [Compound A164, 3-{7-[5-Bromo-4-(2-methylcarbamoyl-phenylamino)-pyrimidin-2-ylamino]-3,4-dihydro-1H-isoquinolin-2-yl}-propionic acid], the pIC50 was less than 8.00.
With `CSCCN1CCc2cc(Nc3ncc(C(F)(F)F)c(NC4CC4)n3)ccc2C1` [Compound A11], the pIC50 was greater than 9.00.
In the case of `FC(F)(F)c1cnc(Nc2ccc3c(c2)CCN(Cc2ccoc2)C3)nc1NC1CC1` [Compound A92], the pIC50 is 8.00 to 9.00.
On the same count and under the same terms, as for `OCC(O)CN1CCc2cc(Nc3ncc(C(F)(F)F)c(NC4CC4)n3)ccc2C1` (stereo not shown) [Compound A13], the figure is less than 8.00; as for `O=C(NCC(F)(F)F)c1cnc(Nc2ccc3c(c2)CCNC3)nc1NC1CC1` [Compound A38], less than 8.00; as for `NC(=O)N1CCc2cc(Nc3ncc(C(F)(F)F)c(NC4CC4)n3)ccc2C1` [Compound A14], 8.00 to 9.00.
As to `CNC(=O)c1ccccc1Nc1nc(Nc2ccc3c(c2)CN(CC(C)O)CC3)ncc1Br` (stereo not shown) [Compound A157, 2-{5-Bromo-2-[2-(2-hydroxy-propyl)-1,2,3,4-tetrahydro-isoquinolin-7-ylamino]-pyrimidin-4-ylamino}-N-methyl-benzamide], the pIC50 is less than 8.00.
Regarding `CN1CCN(C(=O)N2CCc3ccc(Nc4ncc(C(F)(F)F)c(NC5CC5)n4)cc3C2)CC1` [Compound A99], the pIC50 is 8.00 to 9.00.
As to `CNC(=O)c1ccccc1Nc1nc(Nc2ccc3c(c2)CN(C(=O)CCN)CC3)ncc1Br` [Compound A155, 2-{2-[2-(3-Amino-propionyl)-1,2,3,4-tetrahydro-isoquinolin-7-ylamino]-5-bromo-pyrimidin-4-ylamino}-N-methyl-benzamide], the pIC50 is less than 8.00.
Still for that read-out and setting: to `CN1CCC(N2CCc3cc(Nc4ncc(C(F)(F)F)c(NC5CC5)n4)ccc3C2)C1` (stereo not shown) [Compound A114] belongs greater than 9.00; to `NOCC(=O)N1CCc2cc(Nc3ncc(C(F)(F)F)c(NC4CC4)n3)ccc2C1` [Compound A80], 8.00 to 9.00.

Staying with this assay, now noted: Table 2.
As to `COc1cc(Nc2ncc(Br)c(Oc3ccccc3C(=O)NCCN(C)C)n2)cc(OC)c1OC` [Compound B7], the pIC50 is less than 6.00.
`Oc1nc(Nc2ccc3c(c2)OCO3)ncc1C(F)(F)F` [Compound B53, 2-(Benzo[d][1,3]dioxol-5-ylamino)-5-(trifluoromethyl)pyrimidin-4-ol]: the pIC50 is less than 6.00.
Same read-out and setting: as for `COc1cc(Nc2ncc(Br)c(Oc3ccccc3C(=O)NCCS(C)(=O)=O)n2)cc(OC)c1OC` [Compound B8], the figure is less than 6.00; as for `COC(=O)c1ccccc1Oc1nc(Nc2ccc(O)c(O)c2)ncc1Br` [Compound B46], less than 6.00; as for `COC(=O)c1ccccc1Oc1nc(Nc2ccc(O)cc2)ncc1Br` [Compound B36], less than 6.00.
Same read-out and setting: as for `COC(=O)c1ccccc1Oc1nc(Nc2ccc(N3CCN(C)CC3)cc2)ncc1Br` [Compound B11], the figure is greater than 7.00; as for `COC(=O)c1ccccc1Oc1nc(Nc2cc(OC)c(OC)c(OC)c2)ncc1Br` [Compound B2], greater than 7.00.
Still for that read-out and setting: to `COC(=O)c1ccccc1Oc1nc(Nc2ccc(OC(F)F)cc2)ncc1Br` [Compound B25] belongs less than 6.00.
`CNC(=O)c1ccccc1Oc1nc(Nc2cc(F)c(F)c(F)c2)ncc1Br` [Compound B1]: the pIC50 was less than 6.00.
Consider `CNC(=O)c1ccccc1Oc1nc(Nc2ccc3c(c2)OCO3)ncc1C(F)(F)F` [Compound B52, 2-((2-(Benzo[d][1,3]dioxol-5-ylamino)-5-(trifluoromethyl)pyrimidin-4-yl)oxy)-N-methyl benzamide], for which the pIC50 is less than 6.00.
For `COC(=O)c1ccccc1Oc1nc(Nc2ccc(N)cc2)ncc1Br` [Compound B37], the pIC50 was 6.00 to 7.00.
Take `COC(=O)c1ccccc1Oc1nc(Nc2ccc(N3CCOCC3)cc2)ncc1Br` [Compound B12]: the pIC50 is less than 6.00.
Turning to `COC(=O)c1ccccc1Oc1nc(Nc2ccc(CO)cc2)ncc1Br` [Compound B38], the pIC50 was less than 6.00.

Still in this assay, the particulars now being: Table 3.
Take `COc1cc(Nc2ncc(Br)c(Oc3ccc(NC(=O)C4(C(=O)Nc5ccc(F)cc5)CC4)cc3F)n2)cc(OC)c1OC` [Compound C28, N-(4-((5-Bromo-2-((3,4,5-trimethoxyphenyl)amino)pyrimidin-4-yl)oxy)-3-fluorophenyl)-N-(4-fluorophenyl)cyclopropane-1,1-dicarboxamide]: the pIC50 is less than 7.00.
As to `CN(C)c1ccc(Nc2ncc(Br)c(Nc3ccccc3CO)n2)cc1` [Compound C11], the pIC50 was greater than 8.30.
Same read-out and setting: as for `COc1cc(Nc2ncc(Br)c(Nc3ccccc3CN3CCN(C)CC3)n2)cc(OC)c1OC` [Compound C20], the figure is less than 7.00.
Take `CNC(=O)c1ccccc1Nc1nc(Nc2cccc(OC(F)(F)F)c2)ncc1Br` [Compound E21, 2-((5-Bromo-2-((3-(trifluoromethoxy)phenyl)amino)pyrimidin-4-yl)amino)-N-methylbenzamide]: the pIC50 is 7.00 to 8.30.
Still for that read-out and setting: to `COc1cc(Nc2ncc(Br)c(Nc3ccccc3C(=O)O)n2)cc(OC)c1OC` [Compound E2] belongs greater than 8.30; to `CC(=O)NCc1ccc(Nc2ncc(C(F)(F)F)c(NC3CC3)n2)cc1` [Compound D5], 7.00 to 8.30.
Turning to `COc1cc(Nc2ncc(Br)c(Nc3ccccc3CN(C)C)n2)cc(OC)c1OC` [Compound C18], the pIC50 was 7.00 to 8.30.
As to `OCCN(CCO)c1ccc(Nc2ncc(Br)c(Nc3ccccc3CO)n2)cc1` [Compound C16], the pIC50 is greater than 8.30.
For `COC(=O)c1ccccc1Nc1nc(Nc2cc(OC)c(OC)c(OC)c2)ncc1Br` [Compound E1], the pIC50 is greater than 8.30.
